Assay [1] relates to HL-60. The assay can be described thus: Induction of apoptosis in human HL60 cells assessed as cell death measured after 24 hrs following photo irradiation by trypan blue assay. The assay is classed as functional, cell-based.
Assay [2] relates to HL-60. The assay can be described thus: Induction of apoptosis in human HL60 cells assessed as DNA fragmentation measured after 6 hrs following photo irradiation by trypan blue assay. The class given is functional, cell-based.
For assay [3], the system named is HL-60. As to the kind of experiment: Cytotoxicity against human HL60 cells assessed as cell viability. The class given is functional, cell-based.
Assay [4] has as its system UB900518. As to the kind of experiment: Antitumor activity against human UB900518 cells xenografted in mouse assessed as tumor regression at 5 mg/kg followed by photo irradiation measured after 72 hrs. The assay is classed as functional, organism-based. Set-up: dose 5 mg/kg. A general note: A xenograft is tissue or cells of one species grown in another, often human tumour cells in immunodeficient mice.

The source made the active and inactive calls. No cut-off for these calls is given here.

Regarding `CN(C)/C=C/C(=C\C=[N+](C)C)c1c2nc(c(C(/C=C/N(C)C)=C/C=[N+](C)C)c3ccc([nH]3)c(C(/C=C/N(C)C)=C/C=[N+](C)C)c3nc(c(C(/C=C/N(C)C)=C/C=[N+](C)C)c4ccc1[nH]4)C=C3)C=C2`, the outcome in assay [1], in assay [2] and in assay [4] was Active. For the same molecule, in assay [3], the IC50 (in general, the concentration that inhibits the measured activity by half) came out at 3 µM.

For the molecule `O=[N+]([O-])c1ccc(-[n+]2ccc(-c3c4nc(c(-c5cc[n+](-c6ccc([N+](=O)[O-])cc6[N+](=O)[O-])cc5)c5ccc([nH]5)c(-c5cc[n+](-c6ccc([N+](=O)[O-])cc6[N+](=O)[O-])cc5)c5nc(c(-c6cc[n+](-c7ccc([N+](=O)[O-])cc7[N+](=O)[O-])cc6)c6ccc3[nH]6)C=C5)C=C4)cc2)c([N+](=O)[O-])c1`, the outcome in assay [1] and in assay [2] was Active. In addition, the IC50 in assay [3] came to 3.4 µM.
